Target: T1, CYP81A24 (Echinochloa phyllopogon, UniProt R4WC97)
T1 construct: expressed in E. coli C41(DE3) from pET28 with co-expressed Arabidopsis ATR2 reductase (pCDF, with HemA) and pGro7 chaperonin
T1 sequence (R4WC97 1-515): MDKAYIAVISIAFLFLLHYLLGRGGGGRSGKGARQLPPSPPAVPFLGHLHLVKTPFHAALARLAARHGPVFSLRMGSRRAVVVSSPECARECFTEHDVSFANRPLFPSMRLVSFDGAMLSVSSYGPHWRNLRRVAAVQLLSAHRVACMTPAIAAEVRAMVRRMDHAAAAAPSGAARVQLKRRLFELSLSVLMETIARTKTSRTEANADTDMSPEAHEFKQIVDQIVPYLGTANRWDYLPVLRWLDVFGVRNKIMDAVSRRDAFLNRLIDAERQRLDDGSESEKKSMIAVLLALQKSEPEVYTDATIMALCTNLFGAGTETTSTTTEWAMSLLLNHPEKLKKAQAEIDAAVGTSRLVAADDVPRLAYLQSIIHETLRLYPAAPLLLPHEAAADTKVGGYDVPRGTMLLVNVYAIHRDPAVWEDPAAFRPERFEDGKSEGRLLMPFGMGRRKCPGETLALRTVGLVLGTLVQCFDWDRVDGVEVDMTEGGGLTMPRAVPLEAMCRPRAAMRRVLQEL
Assay: E. coli whole-cell metabolism, LC-MS/MS MRM m/z […] to […]
Format: cell-based
Conditions: 0.2 mM quinclorac, 24 h, 30 °C; co-expressed ATR2 reductase; putative hydroxylated product, no authentic standard

With `O=C(O)c1c(Cl)ccc2cc(Cl)cnc12` [quinclorac] the “E. coli whole-cell metabolism, LC-MS/MS MRM m/z 258 to 177” value was “identified in the culture solution of E. coli with CYP81A12, CYP81A21, and CYP81A24”.
